Consider ten compounds from patent publication US6755971B2, “Microbiological removal of bromine salts from fluid streams” (AKZO Nobel N.V., priority 1999, dated 2004).

In data set [1] the test system is mixed culture. Briefly: Growth experiments with various carbon sources. Also: key: ++: Extensive growth; +: Growth (based on turbidity of culture); +/−: Slight increase in turbidity. In kind it is cell-based. The settings on record: 24 mM substrate, 10 mM chlorate, 30° C., turbidity. The method, then: Growth of the mixed culture with different carbon and energy sources was determined in 100 ml serum bottles with gas-tight caps filled up to 75% of their volume with mineral salts medium and 24 mM of the substrate and incubated at 30° C. Chlorate was added at a concentration of 10 mM. Growth was followed by determination of the turbidity (visually). The cultures were made anoxic by being flushed with nitrogen gas for approximately 5 minutes. Growth was followed for a maximum period of 2 months.

In data set [2] the test system is chlorate-reducing mixed culture. As to conditions: up to a concentration of 12 mM, separate experiments.
Method: These cultures were inoculated with 1 ml of an exponentially growing culture. […] These cultures were anaerobically incubated at 30° C. in a water bath. The turbidity was measured using a Nephelometer (Hack Ratio XR, Loveland, USA). The turbidity was plotted against time for each of the concentrations and the control. The growth was derived from the slope of the regression line in a plot of In OD 660 versus time. The percentage inhibition of the growth at each concentration was calculated. […] Confidence limits were calculated on the basis of Fieller's theorem. All computations were performed using a statistical software program (SAS, Cary, N.C., USA).
Growth was followed for approximately 8 hours.
Data set [3] has as its system micro-organisms immobilised on pumice particles. Briefly: Bacterial growth inhibition test with sulfite. Format: cell-based. The settings on record: 5 days. How it is done: (§1) Batch experiments were conducted in 110 ml gas-tight glass vessels, which were filled with 10 ml of mineral medium. The gas-phase and the medium in the vessels were flushed with nitrogen. Hydrogen gas was supplied by injection of a known amount using a gas-tight syringe (up to 150 kPa). Vessels were incubated at 30° C. in a shaking water bath. Micro-organisms immobilised on pumice particles were withdrawn from the gas-lift reactor whenever steady state conditions were reached and washed twice with phosphate buffer (20 mM) before use. These immobilised micro-organisms were used to inoculate the cultures. Various salt concentrations in the batch cultures were obtained by adding various amounts of sodium chloride. Sodium sulfite was added to cultures in various amounts from a freshly prepared stock solution. The test vessels for the growth experiments were inoculated by injecting 5 ml of effluent from the reactor. The micro-organisms in the effluent were washed three times with phosphate buffer (20 mM) and concentrated to 0.5 ml by centrifugation (10,000 g, 15 min). 4.4 Analytical Procedures
Besides chlorate and […] the waste water also contains small amounts of hypochlorite. Since hypochlorite is a biocide, removal of this compound before biological treatment is necessary. Hypochlorite can be removed instantly from the waste water using sulfite as reductant. This procedure could be used prior to the biological treatment. To examine whether sulfite is toxic to micro-organisms immobilised on the pumice particles, a toxicity test was performed. Growth was determined after 5 days, and was compared to a control culture without sulfite. The growth was determined by measuring the formation of chloride.

Data set [4] shares this test system. Briefly: Influence of high salt concentration on microbial activity (batch). Format: cell-based. How it is done: as §1
The effect of increased salt concentration in the reactor was investigated in batch experiments. The activity of the micro-organisms immobilised on pumice particles in the batch experiment decreased only slightly with increasing salinity, as indicated in FIG. 19. […]

Each structure is given as a SMILES string.

In the case of `CC(O)C(=O)O` (centres unmarked) [lactate], the Growth entry in data set [1] is “+”. Still for that read-out and setting: then `O=C(O)CC(O)C(=O)O` (centres unmarked) [malate], with “++”.

`[O-][Cl+2]([O-])O` [chlorate]: the “toxicity to the mixed culture” value in data set [2] is reported as “not toxic”. Consider `O=C(O)CCC(=O)O` [succinate], for which, in data set [1], the Growth result is “++”. The same measure, in the same setting: then `CC(=O)O` [acetate], with “++”; and `CCO` [ethanol], with “++”. Consider `CCC(=O)O` [propionate], for which the Growth entry in data set [1] is reported as “++”. Regarding `NCC(=O)O` [glycine], the Growth result in data set [1] is “+/−”.

For the compound `O=S([O-])[O-].[Na+].[Na+]` [Sulfite, sodium sulfite], the Growth inhibition in data set [3] (sulfite 15 mg/l) was determined as 4%; in data set [3] (sulfite 45 mg/l), 0%; in data set [3] (sulfite 135 mg/l) it was 6%; in data set [3] (sulfite 405 mg/l), 7%. In the case of `[Cl-].[Na+]` [sodium chloride], the “effects of increased salinity on activity” value in data set [4] (40 g/l) is recorded as “substantial”. In addition, the “activity (chlorate reduction) relative to the maximum” value in data set [4] (concentration of 30 μl sodium chloride, unacclimatised micro-organisms) was “more than 80%”.
